In brackets after ≈: the same amount, converted by molar mass. One block for each compound: values may come before it.
Columns and labels:
16 C. difficile isolates = assay: MIC by broth microdilution, summary over 16 C. difficile isolates; type: cell-based, Clostridium difficile; settings: n = 2; for MIC50 / MIC90: Clostridioides difficile; for MIC50: MIC at which 50% of the 16 isolates are inhibited, read-out: MIC50; for MIC90: MIC at which 90% of the 16 isolates are inhibited, read-out: MIC90; for MIC Range: range over 16 C. difficile isolates
[1] = tested on: C. difficile isolate 20121412 (ribotype 047); assay: MIC by broth microdilution; type: cell-based, Clostridium difficile; settings: Clostridioides difficile; isolate 20121412, ribotype 047; duplicate; read-out: MIC
[2] = tested on: C. difficile isolate 20120016 (ribotype 019); assay: MIC by broth microdilution; type: cell-based, Clostridium difficile; settings: Clostridioides difficile; isolate 20120016, ribotype 019; duplicate; read-out: MIC
[3] = tested on: C. difficile isolate 20110986 (ribotype 078); assay: MIC by broth microdilution; type: cell-based, Clostridium difficile; settings: Clostridioides difficile; isolate 20110986, ribotype 078; duplicate; read-out: MIC
Hemolysis assay = type: cell-based; settings: sheep, sheep red blood cells (3% suspension), pH 7.4; 32 µg/mL, 1 h, 37 °C; 1% Triton X-100 positive control; triplicate; read-out: Hemolysis (%)
Procedure: Sheep red blood cells (Innovative Research, Novi, MI, USA) were washed three times with PBS pH 7.4. A 3% cell suspension in PBS (100 μL) was added to test compounds in PBS (100 μL, to a final concentration of 32 μg/mL), and then incubated at 37 °C for 1 h. The plate was centrifuged at 500 × g for 10 min, and supernatants (100 μL) were transferred to a clean 96-well plate. Hemolysis was determined by measuring absorbance at 540 nm, with 1% Triton X-100 as the positive control and 0.5% DMSO in PBS as the negative control. Hemolysis assays were performed in triplicate.

[4] = tested on: C. difficile isolate 20110566 (ribotype 020); assay: MIC by broth microdilution; type: cell-based, Clostridium difficile; settings: Clostridioides difficile; isolate 20110566, ribotype 020; duplicate; read-out: MIC
[5] = tested on: C. difficile isolate 20110960 (ribotype 017); assay: MIC by broth microdilution; type: cell-based, Clostridium difficile; settings: Clostridioides difficile; isolate 20110960, ribotype 017; duplicate; read-out: MIC
[6] = tested on: C. difficile isolate 20110869 (ribotype 001_072); assay: MIC by broth microdilution; type: cell-based, Clostridium difficile; settings: Clostridioides difficile; isolate 20110869, ribotype 001_072; duplicate; read-out: MIC
[7] = tested on: C. difficile isolate 20111163 (ribotype 024); assay: MIC by broth microdilution; type: cell-based, Clostridium difficile; settings: Clostridioides difficile; isolate 20111163, ribotype 024; duplicate; read-out: MIC
[8] = tested on: C. difficile isolate 20100584 (ribotype 014); assay: MIC by broth microdilution; type: cell-based, Clostridium difficile; settings: Clostridioides difficile; isolate 20100584, ribotype 014; duplicate; read-out: MIC
[9] = tested on: C. difficile isolate 20110961 (ribotype A12); assay: MIC by broth microdilution; type: cell-based, Clostridium difficile; settings: Clostridioides difficile; isolate 20110961, ribotype A12; duplicate; read-out: MIC
[10] = tested on: C. difficile isolate 20110740 (ribotype 018); assay: MIC by broth microdilution; type: cell-based, Clostridium difficile; settings: Clostridioides difficile; isolate 20110740, ribotype 018; duplicate; read-out: MIC
[11] = tested on: C. difficile isolate 20110973 (ribotype 106); assay: MIC by broth microdilution; type: cell-based, Clostridium difficile; settings: Clostridioides difficile; isolate 20110973, ribotype 106; duplicate; read-out: MIC
[12] = tested on: C. difficile isolate 20110742 (ribotype 002); assay: MIC by broth microdilution; type: cell-based, Clostridium difficile; settings: Clostridioides difficile; isolate 20110742, ribotype 002; duplicate; read-out: MIC
[13] = tested on: C. difficile isolate 20100422 (ribotype 054); assay: MIC by broth microdilution; type: cell-based, Clostridium difficile; settings: Clostridioides difficile; isolate 20100422, ribotype 054; duplicate; read-out: MIC
[14] = tested on: C. difficile isolate 20121190 (ribotype 126); assay: MIC by broth microdilution; type: cell-based, Clostridium difficile; settings: Clostridioides difficile; isolate 20121190, ribotype 126; duplicate; read-out: MIC
C. sporogenes ATCC 15579 = assay: MIC by broth microdilution; type: cell-based; settings: Clostridium sporogenes, ATCC15579, BHIS, anaerobic, duplicate
B. subtilis ATCC 6051 = assay: MIC by broth microdilution; type: cell-based; settings: Bacillus subtilis, ATCC6051; B. subtilis ATCC 6051; CAMHB, aerobic; duplicate; read-out: MIC
[15] = tested on: B. longum subsp. longum Strain 44B; assay: MIC by broth microdilution; type: cell-based; settings: Bifidobacterium longum; B. longum subsp. longum 44B; LSM broth, anaerobic; duplicate; read-out: MIC
[16] = tested on: B. fragilis Strain CL05T00C42; assay: MIC by broth microdilution; type: cell-based; settings: Bacteroides fragilis; B. fragilis CL05T00C42; supplemented Brucella broth, anaerobic; duplicate; read-out: MIC
S. aureus RN4220 = assay: MIC by broth microdilution; type: cell-based; settings: Staphylococcus aureus, CAMHB, aerobic, duplicate
[17] = tested on: C. difficile strain 630 (CD630, ATCC BAA-1382-FZ, ribotype 012); assay: MIC by broth microdilution; type: cell-based, Clostridium difficile
P. aeruginosa PAO1 = assay: MIC by broth microdilution; type: cell-based; settings: Pseudomonas aeruginosa; P. aeruginosa PAO1; CAMHB, aerobic; duplicate; read-out: MIC
P. nigrescens ATCC 33563 = assay: MIC by broth microdilution; type: cell-based; settings: Prevotella nigrescens, ATCC33563; P. nigrescens ATCC 33563; supplemented Brucella broth, anaerobic; duplicate; read-out: MIC
[18] = tested on: C. clostridioforme ATCC 25537; assay: MIC by broth microdilution; type: cell-based, Clostridium clostridioforme; settings: Clostridium, ATCC25537; C. clostridioforme ATCC 25537; BHIS, anaerobic; duplicate; read-out: MIC
[19] = tested on: B. thetaiotaomicron ATCC 29148; assay: microbe, parasite or virus in culture; type: cell-based; settings: Bacteroides thetaiotaomicron, ATCC29148; B. thetaiotaomicron ATCC 29148; supplemented Brucella broth, anaerobic; duplicate; read-out: MIC
A. baumannii M2 = assay: MIC by broth microdilution; type: cell-based; settings: Acinetobacter baumannii; A. baumannii M2; CAMHB, aerobic; duplicate; read-out: MIC
[20] = tested on: B. breve Strain EX336960VC19; assay: MIC by broth microdilution; type: cell-based; settings: Bifidobacterium breve; B. breve EX336960VC19; LSM broth, anaerobic; duplicate; read-out: MIC
S. epidermidis 1457 = assay: MIC by broth microdilution; type: cell-based; settings: Staphylococcus epidermidis; S. epidermidis 1457; CAMHB, aerobic; duplicate; read-out: MIC
[21] = tested on: panel of obligate aerobes, facultative anaerobes and obligate anaerobes; assay: Antibacterial spectrum, MIC against a panel of bacteria; type: cell-based; settings: whole panel of Table S3
[22] = tested on: L. johnsonii Strain 135-1-CHN; assay: MIC by broth microdilution; type: cell-based; settings: Lactobacillus johnsonii, STRAIN1351CHN; L. johnsonii 135-1-CHN; CAMHB with 5% laked horse blood, ~48 h; duplicate; read-out: MIC
[23] = tested on: L. reuteri Strain CF48-3A; assay: MIC by broth microdilution; type: cell-based, Lactobacillus reuteri; settings: Limosilactobacillus reuteri; L. reuteri CF48-3A; CAMHB with 5% laked horse blood, ~48 h; duplicate; read-out: MIC
L. plantarum ATCC 8014 = assay: MIC by broth microdilution; type: cell-based; settings: Lactiplantibacillus plantarum, ATCC8014; L. plantarum ATCC 8014; CAMHB with 5% laked horse blood, ~48 h; duplicate; read-out: MIC
[24] = tested on: C. difficile strain 4118 (CD4118, ATCC BAA-1870, ribotype 027); assay: MIC by broth microdilution; type: cell-based, Clostridium difficile
P. distasonis ATCC 8503 = assay: MIC by broth microdilution; type: cell-based; settings: Parabacteroides distasonis, ATCC8503; P. distasonis ATCC 8503; supplemented Brucella broth, anaerobic; duplicate; read-out: MIC

SMILES: O=C(Nc1ccc([N+](=O)[O-])cc1Cl)c1cc(Cl)ccc1O [Niclosamide, niclosamide]
MIC50 (16 C. difficile isolates): 1 µg/mL (≈ 3.06 µM)
MIC90 (16 C. difficile isolates): 2 µg/mL (≈ 6.11 µM)
MIC Range (16 C. difficile isolates): 0.5 to 4 µg/mL
MIC [1]: 1 µg/mL (≈ 3.06 µM)
MIC [2]: 0.5 µg/mL (≈ 1.53 µM)
MIC [3]: 1 µg/mL (≈ 3.06 µM)
hemolysis at 1 h, 32 µg/mL (Hemolysis assay): < 1%
MIC [4]: 1 µg/mL (≈ 3.06 µM)
MIC [5]: 1 µg/mL (≈ 3.06 µM)
MIC [6]: 2 µg/mL (≈ 6.11 µM)
MIC [7]: 1 µg/mL (≈ 3.06 µM)
MIC [8]: 0.5 µg/mL (≈ 1.53 µM)
MIC [9]: 1 µg/mL (≈ 3.06 µM)
MIC [10]: 1 µg/mL (≈ 3.06 µM)
MIC [11]: 1 µg/mL (≈ 3.06 µM)
MIC [12]: 1 µg/mL (≈ 3.06 µM)
MIC [13]: 0.5 µg/mL (≈ 1.53 µM)
MIC [14]: 0.5 µg/mL (≈ 1.53 µM)

MIC50 (16 C. difficile isolates): 1 µg/mL (≈ 2.49 µM)
MIC90 (16 C. difficile isolates): 1 µg/mL (≈ 2.49 µM)
MIC Range (16 C. difficile isolates): 0.5 to 2 µg/mL
MIC [1]: 2 µg/mL (≈ 4.98 µM)
MIC [2]: 0.5 µg/mL (≈ 1.25 µM)
MIC [3]: 1 µg/mL (≈ 2.49 µM)
MIC [4]: 1 µg/mL (≈ 2.49 µM)
MIC [5]: 0.5 µg/mL (≈ 1.25 µM)
MIC [6]: 0.5 to 1 µg/mL (≈ 1.25 to 2.49 µM)
MIC [7]: 0.5 µg/mL (≈ 1.25 µM)
MIC [8]: 1 µg/mL (≈ 2.49 µM)
MIC [9]: 1 µg/mL (≈ 2.49 µM)
MIC [10]: 1 µg/mL (≈ 2.49 µM)
MIC [11]: 1 µg/mL (≈ 2.49 µM)
MIC [12]: 1 µg/mL (≈ 2.49 µM)
MIC [13]: 1 µg/mL (≈ 2.49 µM)
MIC [14]: 1 µg/mL (≈ 2.49 µM)
SMILES: O=C(Nc1cc(Cl)cc(Cl)c1O)c1c(O)c(Cl)cc(Cl)c1Cl [Oxyclozanide, oxyclozanide]
hemolysis at 1 h, 32 µg/mL (Hemolysis assay): < 1%

SMILES: O=C(Nc1ccc(Oc2ccc(Cl)cc2)cc1)c1cc(I)cc(I)c1 [Compound 5i]
MIC (C. sporogenes ATCC 15579): > 32 µg/mL
MIC (B. subtilis ATCC 6051): > 32 µg/mL
MIC [15]: > 32 µg/mL
MIC [16]: > 32 µg/mL
MIC (S. aureus RN4220): > 32 µg/mL
MIC ([17]; Clostridioides difficile, ATCCBAA1382, BHIS broth, anaerobic, 20–24 h, n = 2): > 32 µg/mL
in vitro activity against CD630 (in words) ([17]; growth inhibition, MIC assay): inactive
MIC (P. aeruginosa PAO1): > 32 µg/mL
MIC (P. nigrescens ATCC 33563): > 32 µg/mL
MIC [18]: > 32 µg/mL
MIC [19]: > 32 µg/mL
MIC (A. baumannii M2): > 32 µg/mL
MIC [20]: > 32 µg/mL
MIC (S. epidermidis 1457): > 32 µg/mL
antibacterial activity (in words) [21]: lacked antibacterial activity
MIC [22]: > 32 µg/mL
MIC [23]: > 32 µg/mL
MIC (L. plantarum ATCC 8014): > 32 µg/mL
MIC ([24]; Clostridioides difficile, ATCCBAA1870, BHIS broth, anaerobic, 20–24 h, n = 2, read-out: MIC C. difficile 4118): > 32 µg/mL
in vitro activity against CD4118 (in words) ([24]; growth inhibition, MIC assay): inactive
MIC (P. distasonis ATCC 8503): > 32 µg/mL

From paper PMC5025651, “Reprofiled anthelmintics abate hypervirulent stationary-phase Clostridium difficile” (Scientific Reports, 2016)
